This is an account of results in patent US20150202179A1, “FATTY ACID DERIVATIVES FOR USE IN A METHOD OF TREATING DEPRESSION AND ASSOCIATED CONDITIONS” (YISSUM RESEARCH DEVELOPMENT COMPANY OF THE HEBREW …, priority 2012, published 2015).

For one assay, the system named is serotonin (5HT) levels. In words: Serotonin (5HT) determination in brain tissue by HPLC with electrochemical detection. In kind it is in vivo, mice. The following applies: for 5HT: ng/g wet tissue +/− SEM; for 5HT levels in the hippocampus vs. control / 5HT levels in the hypothalamus vs. control: result in words. How it is done: Solution of DHBA as internal standard in the concentration of: 1 μg/ml in 0.1M perchloric acid, were prepared. Standard solutions of NE and 5HT in the concentration of 1-0.1 μg/ml in 0.1M perchloric acid were prepared.
Tissues (hypothalamus and hippocampus) obtained from 6-8 mice were dissected on ice surface and kept at −80 C. Hypothalamus (HT) or hippocampus (HC) from 1 mice were weighted (weight of HT −10-20 mg, HC 30-40 mg) and placed in eppendorf micro-centrifuge tube, 1.5 ml. To each tube was added 120-160 μl of ice cold solution of Perchloric acid and DHBA, homogenized in ice bath on Sonics vibra cell, 3×20 sec., 0.4 watts and centrifuged at 14,000×g at 4° C. 10 min. Supernatant gained was stored in ice before analysis.
The HPLC system consisted of Jasco PU-980 pump, Jasco AS-950-10 autosampler cooled at 4° C., H3 ODS-125A 3 μm 125 mm×4.6 mm i.d. analytical column (Hichrom, UK) were used. Electrochemical detector Coulochem ESA 5100A with analytical cell model 5011 was used for control detector voltage and record the current. Working electrode was set at potential +350 mV. Control and data collection/processing were handled through Borwin chromatography software.
The mobile phase composition: A stock buffer was prepared as follows: 20 mM sodium dihydrogenorthophosphate, EDTA 3 mg/l, 1-heptanesulfonic acid 1 g/l were dissolved in 1 liter deionized distilled water and buffered to pH 3.7 using concentrated phosphoric acid. To prepare the mobile phase buffer was mixed with acetonitrile (Baker HPLC analyzed) in the ratio 85:15 (v/v), filtered through a 0.2 μm membrane filter and degassed under vacuum after mixing. Mobile phase flow rate 1 ml/min. Injection volume 20 μl, retention time for DHBA 4.2 min., norepinephrine—3.1 min., 5HT 8.6 min. For calibration curve 1 ug/ml solution of DHBA together with 1.0-0.1 μg/ml solutions of 5HT and NE were used. The ratio between 5HT or NE and DHBA used to calculate the level of 5HT and NE in the sample. Date are given in ng/g wet tissue +/−SEM.

A short description of assay [1]: Weight and food consumption in Sabra mice. Format: in vivo. How it is done: 140 Female Sabra Mice 12 weeks old are divided to […] 10 mice in each group with equal weight. Mice are administered I.P. with either saline or 1 mg/kg Fluoxetine (PROZAC), compound 1, 4, 5, 7, 10, 11, 12, 13, 14, 15, 19, 26 for a 4 weeks period. On day 30 and on, mice were tested by the following behavioral tests. […]

Assay [2] can be described thus: Novelty Suppressed Feeding Test (NSFT), separated BALB/c mice. Format: in vivo. The following applies: compounds 1 mg/kg i.p., day 9. How it is done: (§1) Novelty suppressed feeding test (NSFT): After the last treatment injection, all food is removed from the cage for 24 hours (water available ad libitum). At the end of this time, the animal is introduced into a 50×50×20 (height) cm wooden arena the floor of which is marked with equal rectangles of 10×10 cm. A pellet of food is placed on an elevated surface in the center of the arena. The time elapsing from the introduction of the animal into the arena until it commences eating (latency to feed) is recorded. The animal is removed from the arena immediately after it begins to eat or after not doing so for 5 min. During the test, the number of lines crossed by the animal is counted as a measure of motor activity, and calibrated for 5 min if the animal started eating before that. After the test, the animal is immediately transferred to its home cage and left to consume a previously weighed amount of food for 10 minutes. On completion of this period the food is weighed again to calculate the home cage food consumption.
50, 2 month old female BALB/c mice, 10 mice per group, on ad libitum diet were separated (each mouse in a different cage) for 9 days (Separation Stress, a model for depression). On the 7, 8, 9, 34-40, days mice were administered with either vehicle or compounds x, 12 and 15 (1 mg/kg i.p.) or imipramine 10 mg/kg (antidepressant) i.p. and tested in Novel Suppressed Feeding Test on day 9.
as §1, with “FIGS. 9A-9C show the results of the NSFT. […]” for “Novelty suppressed feeding test (NSFT):”, “hours.” for “hours (water available ad libitum).”, “into” for “into a 50×50×20 (height) cm wooden arena”, “open field test.” for “floor of which is marked with equal rectangles of 10×10 cm.”, “to find” for “elapsing from”, “food was” for “introduction of the animal into the arena until it commences eating (latency to feed) is”

Another assay concerns P-AMPK protein. In words: P-AMPK protein levels by western blot. Format: in vivo, BALB/c mice. As to the method: 50, 2 month old female BALB/c mice, 10 mice per group, on ad libitum diet were separated (each mouse in a different cage) for 9 days (Separation Stress, a model for depression). On the 7, 8, 9, 34-40 days mice were administered with either vehicle or compounds x, 12 and 15 (1 mg/kg i.p.) or imipramine 10 mg/kg (antidepressant). P-AMPK protein was monitored by western blot. […] (p<0.05a).
On the technique in general: Immunoblotting shows a protein as a band on a membrane.

The next assay relates to leptin. In words: Leptin levels in the hypothalamus. In kind it is in vivo, BALB/c mice. The following applies: FIG. 15. The text has this: (§2) 50, 2 month old female BALB/c mice, 10 mice per group, on ad libitum diet were separated (each mouse in a different cage) for 9 days (Separation Stress, a model for depression).
The next assay concerns p-SAPK/JNK. The experiment in a line: p-SAPK/JNK levels in the hypothalamus. The following applies: FIG. 16. In kind it is in vivo, BALB/c mice.
Description: as §2

Like-named read-outs stand apart in the source and are kept apart here.

Take `CCCCCCCC/C=C\CCCCCCCC(=O)N[C@H](CO)C(C)C` [Compound 1, oleoyl-L-valinol amide]: the figures for the “5HT” value in the assay on serotonin (5HT) levels (Hippocampus) and in the assay with serotonin (5HT) levels (Hypothalamus) were 342.2 ± 33 ng/g and 854.4 ± 16.8 ng/g, respectively. Moreover, the “5HT levels in the hippocampus vs. control” value is on record as “significantly enhanced” in the assay with serotonin (5HT) levels and “increased significantly” in the assay with serotonin (5HT) levels (listed as X). Besides, the “5HT levels in the hypothalamus vs. control” value with serotonin (5HT) levels is reported as “significantly enhanced”; with serotonin (5HT) levels (listed as X), “increased significantly”. For the same molecule, the food consumption result in assay [1] was “significant decrease”. Further, the “weight (weight loss)” value in assay [1] is given as “significant decrease”; in assay [1] (listed as OVA), “decreased body weight”; in assay [1] (listed as X) it was “significant weight loss”. The “food intake in NSFT” value in assay [2] (in relation to vehicle and more than imipramine 10 mg/kg) is “significantly enhanced food intake”. Besides, the “motor activity in NSFT” value in assay [2] (resembled imipramine 10 mg/kg) is reported as “enhanced motor activity”. In the assay with P-AMPK protein (hippocampus, FIG. 14A), the “P-AMPK protein in the hippocampus” value is “significant increase”. The “P-AMPK protein in the hypothalamus” value with P-AMPK protein (hypothalamus, FIG. 14B) is on record as “significant increase”. In addition, the “leptin levels in the hypothalamus” value in the assay on leptin is “tendency to increase”. For the same molecule, the “p-SAPK/JNK levels in the hypothalamus” value in the assay on p-SAPK/JNK is given as “significant decrease”.
